Experiments:
CD4+ T-cells [1] = test: Real time PCR of Shh, ptc, Gli1 and bcl-2 transcripts in sub-optimally activated CD4+ T-cells; format: cell-based, mouse
Procedure: CD4^+ T-cells were cultured as above in 48 well plates with and without addition of exogenous Shh or 5E1. At various time points (24 hr, 48 hr, 72 hr) post-activation, the CD4^+ T-cells were spun at 300 g for 7 mins then resuspended in lysis buffer provided as part of the RNeasy kit used for the RNA isolation (Qiagen Ltd, Crawley, UK). Any contaminating DNA was then digested by treating the RNA with DnaseI (Life Technologies) according to the manufacturer's instructions. In order to check that no contaminating DNA remained, a PCR was carried out using genomic β-actin primers (forward primer 5′-CCACCAACTGGGACACATG-3′ (SEQ ID NO:10) and reverse primer 5′-[…]-3′ (SEQ ID NO:11)) (MWG-Biotech AG). The PCR program was as follows: 35 cycles of 30 secs at 94° C., 1 min at 58° C., 2 mins at 72° C. followed by a 5 min 72° C. extension then 4° C. hold. This was carried out on a PTC-200 Peltier thermal cycler (MJ Research Inc., Massachusetts, USA).
Unless otherwise stated all materials for real time PCR were supplied by Applied Biosytems UK, Cheshire, UK. 400 ng of RNA was reverse transcribed using the Multiscribe RT kit. Samples were incubated for 10 min at 25° C., 40mins at 48° C. then 5 min at 95° C. to allow the reverse transcription to take place. cDNA samples were then diluted 1:5 in nuclease-free water (Promega). The PCR step was carried out using Taqman Universal PCR Mastermix, a primer/probe mix specific to the gene of interest and a primer/probe mix specific to 18s rRNA control reagent. The following primer/probe sequences were used:
These probes were all labelled with the fluorescent dye fam (6-carboxy-fluorescein). The primer/probe mix for 18S was supplied by Applied Biosystems which was labelled with the fluorescent dye vic™. Each cDNA sample was run in duplicate 25 μl volumes on a capped 96-well optical reaction plate. The plate was run in the ABI Prism 7700 sequence detector using SDS software. The PCR conditions were as follows: 50° C. for 2 min, 95° C. for 10 min then 40 cycles of 15 sec at 95° C. and 1 min at 60° C. The software then analysed the data and output a pair of ‘ct’ values for each sample. ‘Ct’ is the number of cycles needed to result in a signal crossing a set threshold. Each sample yielded two ct values, one for the gene of interest and one for the 18S house keeping control. The ct values were then transported to a Microsoft Excel spreadsheet and analysed to give a value representing the relative mRNA levels present for the gene of interest linearly as per the manufacturers instructions.
In order to analyse the mechanisms of Shh amplification of TCR mediated activation in CD4^+ T-cells, the kinetics of expression of components of the Shh signalling pathway and bcl-2 were analysed in activated CD4^+ T-cells in the presence and absence of exogenous Shh. CD4^+ T-cell cultures were set up as before, sub-optimally activated with anti-CD3/CD28 and Shh was added at t=0. RNA was extracted at 24, 48 and 72 hr post-activation. It has been reported that a 2× or greater increase in the transcription of any gene on at least 2 occasions is considered to be significant (Chtanova et al and Granucci et al).

[2] = system: mouse spleen cells and purified CD4+ T-cells; test: Survival in culture by Trypan blue staining; format: cell-based; settings: no activation; Shh 10 and 100 ng/ml; 4 day time frame
Procedure: Survival was measured by Trypan blue staining of dead and alive cells in culture;
Cells cultured in medium without Shh were used as controls;

CD4+ T-cells [3] = test: Cell cycle analysis (propidium iodide, Vindelov method); format: cell-based, mouse
Procedure: CD4^+ T-cells were cultured in RPMI 1640 medium (Life Technologies, Paisley, UK) supplemented with 10% FCS (Life Technologies), 2 mM L-glutamine, (Sigma, Dorset, UK), 20 μg/ml penicillin/streptomycin (Life Technologies) and […] 2-mercaptoethanol (Sigma). Anti-CD3/28 antibody activation was carried out at 2 concentrations, namely ‘sub-optimal’ (anti-CD3 at 0.25 μg/ml and anti-CD28 at 0.1 μg/ml) and ‘optimal’ (anti-CD3 at 1 μg/ml and anti-CD28 at 5 μg/ml). Tissue culture plates (Corning Inc., NY, USA) were coated with the anti-CD3 antibody for 90 min at 37° C. prior to addition of the CD4^+ T-cells. Recombinant mouse Shh amino-terminal peptide (R&D systems Europe Ltd, Abingdon, UK) was added into cultures at a concentration of 500 ng/ml. 5E1 antibody was used at either 20 μg/ml or 50 μg/ml and the isotype control was used at 20 μg/ml. The concentrations used were based on results of dose response curves (data not shown).
The CD4^+ T-cells were cultured as above in 48-well plates with and without addition of exogenous Shh or 5E1. At 72 hr post-activation, the cells were spun at 13,000 rpm for 7 min then re-suspended in citrate buffer. Cell cycle analysis was carried out using the Vindelov method (Vindelov et al, 1990). Briefly, the cells were trypsinized (Sigma) to expose the nucleus before being stained with propidium iodide (Sigma). Cell cycle analysis was then performed on an Epics© XL flow cytometer (Beckman Coulter UK Ltd, Bucks, UK). The machine counted 30,000 nuclei in each sample and the software analysed the % of cells in each stage of the cell cycle sub-G1, G1, S phase and G2/M. From these figures, the % of live cells (G1, S and G2/M) was calculated, and from this, the % of live cells in G1 and S/G2 phases.
The effect of Shh on CD4^+ T-cell proliferation was investigated further using cell cycle analysis to allow us to examine if Shh affected cell survival or promoted entry in the S/G2 proliferative phase of the cell cycle. As with the ^3H-TdR incorporation studies, this analysis was carried out on resting CD4^+ T-cells and those optimally and sub-optimally activated. Exogenous Shh was added at the time of (t=0) or 24 hr before (t=−24 hr) anti-CD3/28 antibody activation and the T-cells were analysed 72 hr later. In the case of resting CD4^+ T-cells, Shh peptide was added at t=0, and the cells were analysed at 24 hr, 48 hr and 72 hrs. The % cells distributed in sub-G1, G1, S and G2 phases of the cell cycle was analysed, and from this the % live cells in G1 and S/G2 phases was calculated.

[4] = Shh peptide at t=0, 24, 48, 72 hr
[5] = optimally activated, Shh 24 hr prior to activation
[6] = sub-optimally activated, Shh peptide at t=0

Question: What does the source list for “Shh peptide: Recombinant mouse Shh amino-terminal peptide (R&D systems); biologically active N-terminal Sonic hedgehog fragment”?
Answer: level of transcription of Gli1 vs media only activated cultures (CD4+ T-cells [1]; [4]): No difference; level of transcription of ptc vs media only activated cultures (CD4+ T-cells [1]; [4]): No difference; transcription of Shh vs media only activated cultures (CD4+ T-cells [1]; Shh peptide at t=0, 24 hr): significantly reduced; transcription of bcl-2 vs media only activated cultures (CD4+ T-cells [1]; Shh peptide at t=0, 72 hr): significantly increased; Bcl-2 transcripts, time course normalised to 24 hr sample (CD4+ T-cells [1]; in presence of exogenous Shh): increased at 48 hr and at 72 hr; Gli1 transcription, time course normalised to 24 hr sample (CD4+ T-cells [1]; in presence of exogenous Shh): increased at 48 hr and was maintained at 72 hr; Shh transcription, time course normalised to 24 hr sample (CD4+ T-cells [1]; in presence of exogenous Shh): increased both at 48 hr and 72 hr; ptc transcription, time course normalised to 24 hr sample (CD4+ T-cells [1]; in presence of exogenous Shh, 72 hr): marginally higher; survival in culture [2]: enhances their survival; effect on cell cycle progression, direct addition on its own (CD4+ T-cells [3]; FIG. 13, Shh 10 and 500 ng/ml, relative to the anti-Shh effect): slight effect in the opposite direction; % increase in live cells in S/G2 phase, range (CD4+ T-cells [3]; optimally activated (anti-CD3 1 μg/ml, anti-CD28 5 μg/ml), Shh at t=0, 72 hr): 9%-144%; % of live cells with and without Shh (CD4+ T-cells [3]; [5]): very similar; increase in cells in S/G2 phase, range (CD4+ T-cells [3]; [5]): 53.1%-97.1%; increase in cells in S/G2 phase, mean (CD4+ T-cells [3]; optimally activated, Shh 24 hr prior to activation, n=3, p<0.01): 71.5%; % of live cells with and without Shh (CD4+ T-cells [3]; optimally activated, Shh at t=0): very similar; % increase in live cells in S/G2 phase, mean (CD4+ T-cells [3]; optimally activated, Shh at t=0, n=3, not statistically significant): 63.7%; difference in % of cells in S/G2 phase (CD4+ T-cells [3]; resting CD4+ T-cells, Shh 500 ng/ml): negligible; effect on cell survival (CD4+ T-cells [3]; resting CD4+ T-cells, Shh 500 ng/ml, 24, 48, 72 hr): minimal effects; increase in % of live cells entering S/G2 phase, range (CD4+ T-cells [3]; sub-optimally activated, Shh peptide 24 hr prior to activation): 34.6%-110%; increase in % of live cells entering S/G2 phase, mean (CD4+ T-cells [3]; sub-optimally activated, Shh peptide 24 hr prior to activation, n=3, p<0.03): 61.5%; % of live CD4+ T-cells (CD4+ T-cells [3]; sub-optimally activated, Shh peptide 24 hr prior to activation, p<0.02): increase; % increase in live cells in S/G2 phase, range (CD4+ T-cells [3]; [6]): 27.8%-77.8%; % live cells with and without Shh (CD4+ T-cells [3]; [6]): similar; % increase in live cells in S/G2 phase, mean (CD4+ T-cells [3]; sub-optimally activated, Shh peptide at t=0, n=3, p<0.02): 55.8%
